Results on 15 molecules are retold here after patent publication US8278037B2, “N-acetylgalactosamine transferases and nucleic acids encoding the same” (National Institute of Advanced Industrial Science and …, priority 2002, dated 2012).

Holding throughout (type): biochemical
The target in experiment [1] is T1, NGalNAc-T2 (Homo sapiens, UniProt Q6L9W6, K411R). Nature of the experiment: Requirements of divalent cations in the activity. An excerpt: (§1) In addition, the value (263.21 dpm) of MES (pH 6.75) was adopted as a blank value in the case of a non-enzyme. Further, when pH of HEPES buffer was 7.4 for NGalNAc-T1 and 6.75 for NGalNAc-T2, the highest value was shown. […] Hereinafter, MES (pH 6.5) was used in each of experiments.
(§2) Generally, glycosyl transferases require frequently divalent cations. The activity of each enzyme was studied by adding various divalent cations. Consequently, the high values were represented when Mn^2+ in NGalNAc-T1, and Mg^2+, Mn^2+ and Co^2+ in NGalNAc-T2 were added (see Table 5). […] From the above results, it was explained that both enzymes require divalent cations.

Experiment [2] concerns the target T2, NGalNAc-T1 (Homo sapiens, UniProt Q76KP1).
T2 sequence (Q76KP1 62-1039): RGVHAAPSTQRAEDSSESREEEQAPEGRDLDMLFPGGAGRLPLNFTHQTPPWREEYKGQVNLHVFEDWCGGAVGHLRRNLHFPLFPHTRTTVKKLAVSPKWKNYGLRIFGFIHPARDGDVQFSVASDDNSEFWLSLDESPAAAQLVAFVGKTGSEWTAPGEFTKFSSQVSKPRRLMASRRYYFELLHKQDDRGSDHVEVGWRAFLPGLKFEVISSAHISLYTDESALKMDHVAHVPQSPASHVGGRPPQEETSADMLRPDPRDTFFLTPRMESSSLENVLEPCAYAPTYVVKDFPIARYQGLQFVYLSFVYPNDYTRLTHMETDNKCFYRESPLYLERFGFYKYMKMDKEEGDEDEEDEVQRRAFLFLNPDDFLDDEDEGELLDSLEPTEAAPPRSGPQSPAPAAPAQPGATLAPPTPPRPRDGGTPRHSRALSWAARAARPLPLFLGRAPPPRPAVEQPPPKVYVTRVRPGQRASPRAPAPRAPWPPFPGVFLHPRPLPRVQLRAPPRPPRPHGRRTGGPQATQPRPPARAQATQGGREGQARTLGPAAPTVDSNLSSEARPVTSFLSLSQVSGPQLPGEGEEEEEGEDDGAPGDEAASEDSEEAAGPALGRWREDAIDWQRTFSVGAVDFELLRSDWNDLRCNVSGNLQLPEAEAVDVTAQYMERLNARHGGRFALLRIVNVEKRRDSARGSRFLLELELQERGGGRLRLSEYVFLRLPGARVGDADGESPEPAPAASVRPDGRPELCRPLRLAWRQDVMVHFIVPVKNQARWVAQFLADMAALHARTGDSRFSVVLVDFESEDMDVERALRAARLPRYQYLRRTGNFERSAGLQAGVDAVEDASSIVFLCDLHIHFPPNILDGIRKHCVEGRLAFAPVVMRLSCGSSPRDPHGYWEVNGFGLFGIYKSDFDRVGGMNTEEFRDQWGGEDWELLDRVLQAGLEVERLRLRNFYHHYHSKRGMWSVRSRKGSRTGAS
Briefly: Requirements of divalent cations in the activity.
From the text: as §1, §2

Experiment [3] deals with T1, NGalNAc-T2. Nature of the experiment: Search for acceptor substrates, each acceptor by itself. The following applies: acceptor 10 nmol/20 μl by itself. Here is the method:
(§3) The acceptor substrates were prepared so that each of Gal-α-pNp, Gal-β-oNp, GalNAc-α-Bz, GalNAc-β-pNp, GlcNAc-α-pNp, GlcNAc-β-pNp, Glc-α-pNp, Glc-β-pNp, GlcA-β-pNp, Fuc-α-pNp, Man-α-pNp (thereinbefore, CALBIOCHEM Co.), Xyl-α-pNp, Xyl-β-pNp (thereinbefore, SIGMA Co.) was included in 2.5 nmol/20 μl. Further, the solutions of various donor substrates (UDP-GalNAc, UDP-GlcNAc, UDP-Gal, GDP-Man, UDP-GlcA, UDP-Xyl and GDP-Fuc, thereinbefore, SIGMA Co.) are shown in Table 3.
(§4) All of reaction times were 16 hours. After reaction, non-reactive acceptor substrates with radioactivity were removed with SepPack C18 column (Waters CO.), and radioactivity from donor substrates integrated into acceptor substrates was determined with a liquid scintillation counter.
(§5) Further, in order to investigate acceptors, reactions were performed using each acceptor (10 nmol/20 μl) by itself. As a result, significant radioactivity was detected in the case of GlcNAc-β-pNp (NGalNAc-T1: 256.26 dpm, NGalNAc-T2: 1221.22 dpm). Based on the above results, it was explained that both of NGalNAc-T1 and NGalNAc-T2 are glycosyl transferases capable of transferring GalNAc to GlcNAc-T.

The target of experiment [4] is T2, NGalNAc-T1. Described as above. The following applies: acceptor 10 nmol/20 μl by itself. Here is the method: as §3, §4, §5
Experiment [5] addresses T1, NGalNAc-T2. Briefly: Assay for acceptor substrates of glycosyl-transferase activities (GalNAc-T assay, HPLC). The following applies: Table 6, O-glycan type acceptors 500 μM; GlcNAcβ-Bz = 100. Here is the method:
(§6) For the reaction of GalNAc-T assay, 50 mM MES buffer (pH 6.5) containing 0.1% triton X-100, 1 mM UDP-GalNAc, 10 mM MnCl2 and 500 μM each acceptor substrate was used. A 10 μl of enzyme solution for 20 μl of each reaction mixture were added and incubated at 37° C. for various periods. After the incubation the mixture was filtrated with Ultrafree-MC column (Millipore, Bedford, Mass.), and 10 μl aliquot was subjected to reversed-phase high performance liquid chromatography (HPLC) on an ODS-80Ts QA column (4.6×250 mm; Tosoh, Tokyo, Japan). A 0.1% TFA/H2O with 12% acetonitrile was used as a running solution. An ultraviolet spectrophotometer (absorbance at 210 nm), SPD-10AVP (Shimazu, Kyoto, Japan) was used for detection of the peaks. When the pyridyl amino-labeled oligosaccharides were utilized as acceptor substrates, 50 nM substrates were added into the reaction mixtures. For the analyses of the products derived from pyridyl amino labeled oligosaccharides, 100 mM acetic acid/triethylamine (pH4.0) was used as a running solution and the products were eluted with a 30-70% gradient of 1% 1-butanol in running solution at a flow rate of 1.0 ml/min at 55° C.
(§7) To investigate the specificity for acceptor substrates, N- and O-glycans containing GlcNAc on their non-reducing termini were utilized.

Experiment [6] deals with T2, NGalNAc-T1. The description is as above. The following applies: Table 6, O-glycan type acceptors 500 μM; GlcNAcβ-Bz = 100. Here is the method: as §6, §7
Experiment [7] deals with T1, NGalNAc-T2. Nature of the experiment: Search for donor substrates, radioactive glycosyltransferase assay. The following applies: mixed mono-saccharide acceptor substrates, 16 hours. Here is the method: (§8) 15 μg of pFLAG-NGalNAc-T1 or pFLAG-NGalNAc-T2 was induced into 2×10^6 of COS-1, cells which were cultured overnight in DMEM (Dulbecco's modified Eagle's medium) including 10% FCS (fetal calf serum), using Lipofectamine 2000 (Invitrogen Co.) as a protocol provided by the same company. A supernatant of 48-72 hours was collected. The supernatant was mixed with NaN3 (0.05%), NaCl (150 mM), CaCl2 (2 mM) and an anti-M1 resin (Sigma Co.) (50 μl), and the mixture was stirred overnight at 4° C. The solution of reaction mixture was centrifuged (3000 rpm, 5 min, 4° C.) to collect a pellet. The pellet was combined with 900 μl of 2 mM CaCl2/TBS and re-centrifuged (2000 rpm, 5 min, 4° C.), after which the pellet was suspended in 200 μl of 1 mM CaCl2/TBS to give a sample for assaying activity (NGalNAc-T1 or NGalNAc-T2 enzyme solution).
(§9) A search for a donor substrate of the enzyme of the present invention was performed on various mono-saccharide acceptor substrates, using […] of enzyme solution and various acceptor substrates.
as §3, §4

Experiment [8] deals with T2, NGalNAc-T1. The experiment is described as above. The following applies: mixed mono-saccharide acceptor substrates, 16 hours. Here is the method:
as §8, §9, §3, §4

Where [9] appears, read: divalent cation etc. added, MES (pH 6.5).
Setting [10] is: divalent cation etc. added, MES (pH 6.5), blank 263.21 subtracted.

Take `[Ca+2].[Cl-].[Cl-]` [CaCl2]: the “Incorporation of radioactivity (A)” value is recorded as 217.83 dpm in experiment [1] (setting [9]) and 230.78 dpm in experiment [2] (setting [9]). The “(A) − (B)” value was −45.38 dpm in experiment [1] (setting [10]) and −32.43 dpm in experiment [2] (setting [10]).
For `O=S(=O)([O-])[O-].[Cd+2]` [CdSO4] the same measures were 217.92 dpm, 203.39 dpm, −45.29 dpm and −59.82 dpm.
Consider `[Cl-].[Cl-].[Co+2]` [CoCl2], for which, in experiment [1], the “enzyme activity on adding divalent cation, in words” value (shortened to “enzyme activity”) is reported as “high values”. In addition, in experiment [1] (pH 6.5), the “(A) − (B)” value is 867.42 dpm and the “Incorporation of radioactivity (A)” value was found to be 1130.63 dpm. Besides, in experiment [2] (pH 6.5), the “(A) − (B)” value is listed as −22.30 dpm and the “Incorporation of radioactivity (A)” value turned out to be 240.91 dpm.
Consider `[Cl][Cu][Cl]` [CuCl2], for which the “Incorporation of radioactivity (A)” value in experiment [1] (setting [9]) was found to be 218.35 dpm; in experiment [2] (setting [9]) it was 278.77 dpm. In addition, the “(A) − (B)” value in experiment [1] (setting [10]) is −44.86 dpm; in experiment [2] (setting [10]), 15.56 dpm.
Taken in the same sequence, the figures for `O=C(O)CN(CCN(CC(=O)O)CC(=O)O)CC(=O)O` [EDTA] were 235.28 dpm, 242.38 dpm, −27.93 dpm and −20.83 dpm.
Regarding `CC(=O)N[C@H]1[C@H](Oc2ccc([N+](=O)[O-])cc2)O[C@H](CO)[C@@H](O)[C@@H]1O` [GlcNAc-β-pNp], the results for the radioactivity detected in experiment [3] and in experiment [4] were 1221.22 dpm and 256.26 dpm, respectively.
With `CC(=O)NC1C(OC2C(O)C(CO)OC(Oc3ccc([N+](=O)[O-])cc3)C2NC(C)=O)OC(CO)C(O)C1O` (centres unmarked) [GlcNAcβ1-3GalNAcα-pNp], the “Relative activity (%)” value in experiment [5] came to 32.3%; in experiment [6], 20.0%.
On to `CC(=O)N[C@H]1[C@H](OC[C@H]2O[C@H](Oc3ccc([N+](=O)[O-])cc3)[C@H](NC(C)=O)[C@@H](O[C@@H]3O[C@H](CO)[C@H](O)[C@H](O)[C@H]3O)[C@H]2O)O[C@H](CO)[C@@H](O)[C@@H]1O` [GlcNAcβ1-6(Galβ1-3)GalNAcα-pNp], for which the “Relative activity (%)” value stood at 11.4% in experiment [5] and 15.2% in experiment [6].
For `CC(=O)N[C@H]1[C@@H](Oc2ccc([N+](=O)[O-])cc2)O[C@H](CO[C@@H]2O[C@H](CO)[C@@H](O)[C@H](O)[C@H]2NC(C)=O)[C@H](O)[C@@H]1O` [GlcNAcβ1-6GalNAcα-pNp] the same measures were 220.4% and 190.7%.
Taken in the same sequence, the figures for `CC(=O)N[C@H]1[C@H](OCc2ccccc2)O[C@H](CO)[C@@H](O)[C@@H]1O` [GlcNAcβ-Bz] were 100% and 100%.
On to `[Cl-].[Cl-].[Mg+2]` [MgCl2], for which the “enzyme activity” value in experiment [1] was “high values”. In addition, the “Incorporation of radioactivity (A)” value in experiment [1] (setting [9]) is 3124.16 dpm; in experiment [2] (setting [9]), 256.36 dpm. The “(A) − (B)” value in experiment [1] (setting [10]) is listed as 2860.95 dpm; in experiment [2] (setting [10]), −6.85 dpm.
For `[Cl][Mn][Cl]` [MnCl2], the “enzyme activity” value in experiment [1] and in experiment [2] was “high values” throughout. The results for the “Incorporation of radioactivity (A)” value in experiment [1] (setting [9]) and in experiment [2] (setting [9]) were 1484.43 dpm and 519.47 dpm, respectively. Further, the “(A) − (B)” value turned out to be 1221.22 dpm in experiment [1] (setting [10]) and 256.26 dpm in experiment [2] (setting [10]).
As to `CC(=O)N[C@H]1[C@@H](OP(=O)(O)OP(=O)(O)OC[C@H]2O[C@@H](n3ccc(=O)[nH]c3=O)[C@H](O)[C@@H]2O)O[C@H](CO)[C@H](O)[C@@H]1O` [UDP-GalNAc, UDP-N-acetyl-D-galactosamine], the “activity with donor substrate (radioactivity integrated into acceptor substrates)” value in experiment [7] and in experiment [8] was “highest activity” throughout.
In the case of `O=C(O)[C@H]1O[C@H](OP(=O)(O)OP(=O)(O)OC[C@H]2O[C@@H](n3ccc(=O)[nH]c3=O)[C@H](O)[C@@H]2O)[C@H](O)[C@@H](O)[C@@H]1O` [UDP-GlcA], the “activity with donor substrate (radioactivity integrated into acceptor substrates)” value in experiment [7] and in experiment [8] was “little background” in each case.
`[Cl-].[Cl-].[Zn+2]` [ZnCl2]: the “Incorporation of radioactivity (A)” value in experiment [1] (setting [9]) stood at 187.59 dpm; in experiment [2] (setting [9]), 210.29 dpm. Moreover, the entries for the “(A) − (B)” value in experiment [1] (setting [10]) and in experiment [2] (setting [10]) were −75.62 dpm and −52.92 dpm, respectively.
